{
  "source": "patent US7326403B2",
  "about": "“Radioactive iodine-labeled compound” (FUJIFILM Corporation, priority 2003, dated 2008)",
  "key": {"[1]": {"system": "NIH3T3 (fibroblast, control)", "assay": "Uptake experiment in normal control cells (NIH3T3)", "assay_type": "cell-based", "conditions": "0.5 μCi, mean ± S.D.", "description": "(ii) NIH3T3 (Fibroblast, Control)\n(§1) A commercially available DMEM medium (Nissui) was dissolved in extra pure water (500 ml), autoclaved, and added with L-glutamine (0.15 g), Meylon (7% aqueous sodium hydrogencarbonate, a pharmaceutical preparation for injection, 14 ml) and FBS (55 ml) in a clean bench to prepare a medium. Cells were cultured in this medium.\n(§2) Cells cryopreserved in a medium containing 10% DMSO were thawed, transferred to a 15-ml Falcon tube, and added with PBS to a volume of 5 ml. The mixture was centrifuged at 1300 rpm for 5 minutes. The supernatant was removed by suction, and the precipitates were suspended in PBS (5 ml). The suspension was centrifuged again at 1300 rpm for 5 minutes. The supernatant was removed by suction, and the precipitates were suspended in a medium (10 ml), inoculated in a 10-cm dish and left standing at 37° C. in a 5% CO2 incubator.\nAfter 1 week, when the cells were proliferated to 80 to 90% of the 10-cm dish, the cells were subcultured in a 15-cm dish.\nThe 10-cm dish was taken out from the incubator, and the supernatant was removed by suction. The cells were washed three times with PBS, added with trypsin-EDTA (0.05% trypsin, 0.53 mM EDTA tetrasodium salt, 1 ml) and PBS (1 ml) and left standing in a CO2 incubator for 10 minutes. The dish was taken out from the incubator, and separation of the cells was observed. Then, the cells were transferred to a 15-ml Falcon tube. […]\n(§3) Two days before the uptake experiment, the cells were inoculated on a 24-well plate ([…] of cell-suspended medium/well, 5 wells/plate per one type of cell). […] For the 4 wells to which the compound of the present invention was added, the cells were separated with 0.2 N NaOH and subjected to measurement of radioactivity. For the remaining 1 well, trypsin-EDTA was added to separate the cells, and the number of cells was counted by using a blood cell counter. Percent doses, which were converted to values for 100,000 cells based on the number of cells and radioactivity, and ratios relative to the normal cells (NIH3T3) were calculated. […]"}, "U87MG (glioma)": {"system": "U87MG (glioma)", "assay": "Uptake experiment in tumor cells (U87MG)", "assay_type": "cell-based", "conditions": "for uptake, percent dose converted to 100,000 cells: U87MG, 0.5 μCi, mean ± S.D.", "description": "(§4) (i) LS180 (Human Colon Cancer Cell), SHIN-III (Human Ovary Cancer Cell) and U87MG (Glioma)\nas §1, with “medium, RPMI1640 (Nissui, 5.1 g),” for “DMEM medium (Nissui)”\nas §2\n(§5) After 3 days, when the cells were proliferated to 80 to 90% of the 10-cm dish, the cells were subcultured in a 15-cm dish.\n(§6) The 10-cm dish was taken out from the incubator, and the supernatant was removed by suction. The cells were washed three times with PBS, added with trypsin-EDTA (0.05% trypsin, 0.53 mM EDTA tetrasodium salt, 1 ml) and PBS (1 ml) and left standing in a CO2 incubator for 10 minutes. The dish was taken out from the incubator, and separation of the cells was observed. Then, the cells were transferred to a 15-ml Falcon tube. The cells were added with PBS to a volume of 5 ml and centrifuged at 1300 rpm for 5 minutes, and the supernatant was removed by suction. The precipitates were suspended in PBS (5 ml) and centrifuged at 1300 rpm for 5 minutes, and the supernatant was removed by suction. The precipitates were suspended in a medium (8 ml), and inoculated in a volume of 4 ml each to two of 15-cm dishes, to which the medium (16 ml) was added beforehand, and left standing at 37° C. in a 5% CO2 incubator.\nas §3"}, "[2]": {"system": "SHIN-III (human ovary cancer cell)", "assay": "Uptake experiment in tumor cells (SHIN-III)", "assay_type": "cell-based", "conditions": "for uptake, percent dose converted to 100,000 cells: SHIN-III, 0.5 μCi, mean ± S.D.", "description": "as §4\nas §1, with “medium, RPMI1640 (Nissui, 5.1 g),” for “DMEM medium (Nissui)”\nas §2, §5, §6, §3"}, "[3]": {"system": "SHIN-III human ovary cancer cells (tumor tissue vs muscle tissue)", "assay": "Distribution experiment in vivo, nude mice transplanted with SHIN-III", "conditions": "18.5 kBq via caudal vein, 5, 10 and 30 minutes, FIG. 1", "description": "1.0×10^6 cells of SHIN-III human ovary cancer cells were subcutaneously inoculated in the femoral region of nude mice (male, 5-week old). […] After 5 minutes, 10 minutes and 30 minutes, the mice were sacrificed, and the weight and radioactivity of each organ were measured."}, "[4]": {"system": "LS180 (human colon cancer cell)", "assay": "Uptake experiment in tumor cells (LS180)", "assay_type": "cell-based", "conditions": "for uptake, percent dose converted to 100,000 cells: 0.5 μCi, mean ± S.D.", "description": "as §4\nas §1, with “medium, RPMI1640 (Nissui, 5.1 g),” for “DMEM medium (Nissui)”\nas §2, §5, §6, §3"}},
  "data": [
    {"compound": "CCn1c(=O)/c(=C2\\Sc3ccccc3N2Cc2ccc([125I])cc2)s/c1=C\\c1cccc[n+]1CC", "note": "[the compound of the present invention]", "values": [
      {"measurement": "uptake, percent dose converted to 100,000 cells", "setting": "[1]; after 30 minutes", "value": "1.40 ± 0.03", "unit": "% dose/100000 cells"},
      {"measurement": "uptake, percent dose converted to 100,000 cells", "setting": "[1]; after 1 hour", "value": "2.12 ± 0.14", "unit": "% dose/100000 cells"},
      {"measurement": "uptake, percent dose converted to 100,000 cells", "setting": "[1]; after 3 hours", "value": "3.34 ± 0.18", "unit": "% dose/100000 cells"},
      {"measurement": "uptake ratio relative to the normal cells (NIH3T3)", "setting": "U87MG (glioma); U87MG vs NIH3T3", "value": "about 7 times"},
      {"measurement": "uptake, percent dose converted to 100,000 cells", "setting": "U87MG (glioma); after 30 minutes", "value": "3.19 ± 1.86", "unit": "% dose/100000 cells"},
      {"measurement": "uptake, percent dose converted to 100,000 cells", "setting": "U87MG (glioma); after 1 hour", "value": "3.07 ± 0.09", "unit": "% dose/100000 cells"},
      {"measurement": "uptake, percent dose converted to 100,000 cells", "setting": "U87MG (glioma); after 3 hours", "value": "5.32 ± 0.70", "unit": "% dose/100000 cells"},
      {"measurement": "uptake ratio relative to the normal cells (NIH3T3)", "setting": "[2]; SHIN-III vs NIH3T3", "value": "about seven"},
      {"measurement": "uptake, percent dose converted to 100,000 cells", "setting": "[2]; after 30 minutes", "value": "6.26 ± 0.73", "unit": "% dose/100000 cells"},
      {"measurement": "uptake, percent dose converted to 100,000 cells", "setting": "[2]; after 1 hour", "value": "11.7 ± 1.16", "unit": "% dose/100000 cells"},
      {"measurement": "uptake, percent dose converted to 100,000 cells", "setting": "[2]; after 3 hours", "value": "25.2 ± 2.42", "unit": "% dose/100000 cells"},
      {"measurement": "accumulation in the tumor tissue and muscle tissue", "setting": "[3]", "value": "accumulate in a higher concentration in the tumor tissue than in the muscle"},
      {"measurement": "uptake, percent dose converted to 100,000 cells", "setting": "[4]; LS180, after 30 minutes", "value": "3.37 ± 0.31", "unit": "% dose/100000 cells"},
      {"measurement": "uptake, percent dose converted to 100,000 cells", "setting": "[4]; LS180, after 1 hour", "value": "5.33 ± 0.43", "unit": "% dose/100000 cells"},
      {"measurement": "uptake, percent dose converted to 100,000 cells", "setting": "[4]; LS180, after 3 hours", "value": "10.2 ± 0.97", "unit": "% dose/100000 cells"},
      {"measurement": "uptake ratio relative to the normal cells (NIH3T3)", "setting": "[4]; LS180 vs NIH3T3", "value": "about three"}
    ]}
  ]
}
